Structures can show the parent of a compound that is named as a salt.
Key:
[1] = target: catalytic domain of human PARP14 (Homo sapiens (Human), UniProt Q460N5); assay: Enzymatic assay for inhibition of PARP14 (DELFIA, auto-modification by biotin-NAD); assay type: biochemical; conditions: 50 nM PARP14, 3 μM biotin-NAD
Procedure: An N-terminal His-TEV fusion tag was used to purify the protein from cell lysates. The His-TEV tag was left on the protein for use in the enzymatic assay.
Enzymatic inhibition of PARP14 was measured using a dissociation-enhanced lanthanide fluorescence immunoassay (DELFIA) monitoring the auto-modification of PARP14 by biotinylated nicotinamide adenine dinucleotide (biotin-NAD). 1 μL of a dose response curve of each test compound was spotted in 384-well nickel-coated white microplates (Thermo) using a Mosquito (TTP Labtech). Reactions were performed in a 50 μL volume by adding 40 μL of PARP14 in assay buffer (20 mM HEPES pH==8, 100 mM NaCl, 0.1% bovine serum albumin, 2 mM DTT and 0.002%0 Tween20), incubating with test compound at 25° C. for 30 min, then adding 10 μL of biotin-NAD (Biolog). The final concentrations of PARP14 and biotin-NAD are 50 nM and 3 μM, respectively. Reactions proceeded at 25° C. for 3 h, then were quenched with 5 μL of 10 mM unmodified nicotinamide adenine dinucleotide (Sigma-Aldrich). […] After a 5 min incubation the plate was read on an Envision platereader equipped with a LANCE/DELFIA top mirror (Perkin Elmer) using excitation of 340 nm and emission of 615 nm to measure the amount of Europium present in each well, informing on the amount of biotin-NAD that was transferred in the automodification reaction. […]

LL/2 cells = assay: Tumor growth and survival in LL/2 murine syngeneic model; assay type: in vivo, mouse (C57BL/6); conditions: LL/2 subcutaneous, female C57BL/6 mice, 500 mg/kg PO BID, study terminated on D21
Source text: For the LL/2 study (FIGS. 4A-4C), female C57BL/6 mice were inoculated subcutaneously in the right flank with 5×10^5 LL/2 cells (ATCC, CRL-1642™) for tumor development. Five days after tumor inoculation, 16 mice with tumor size ranging from 37-72 mm^3 (average tumor size 51 mm^3) were selected and assigned into 2 groups using stratified randomization with 8 mice in each group based upon their tumor volumes. The treatments were started from the next day post randomization (defined as randomization day DO) and were treated with vehicle (0.5% methylcellulose+0.2% Tween 80), or the compound of Example 235 (500 mg/kg PO BID*21 days). The tumor sizes were measured three times per week during the treatment. The entire study was terminated on D21.
Statistical significance, calculated using 2 way ANOVA multiple comparisons in which each treatment group was compared to vehicle control, is indicated by an asterisk. Statistics were performed on groups with less than 20% animal loss (D20 for 4T1, D17 for LL/2). Survival benefit was determined for the LL/2 study (FIG. 4B). Individual mice were euthanized once they reached the termination endpoint (TV>2000 mm3). The time from treatment initiation to termination was deemed as its survival time and plotted in a Kaplan-Meier survival curve format. Mice remaining at study end date of 21 days were euthanized at day 21 after treatment initiation. […]

4T1 cells = assay: Tumor growth in 4T1 murine syngeneic model; assay type: in vivo, mouse (BALB/c); conditions: 4T1 orthotopic, female BALB/c mice, 500 mg/kg PO BID, study terminated on D20
Source text: FIGS. 3A and 4A illustrate that a PARP14 inhibitor (Example 235) reduces tumor growth in the murine syngeneic models (A) 4T1 and (B) LL/2. For the 4T1 study (FIGS. 3A and 3B), female BALB/c mice were inoculated orthotopically in the mammary fat pad with 1×10^5 4T1 cells (ATCC, CRL-2539™) for tumor development. Seven days after tumor inoculation, 16 mice with tumor size ranging from 41-78 mm^3 (average tumor size 56 mm^3) were selected and assigned into 2 groups using stratified randomization with 8 mice in each group based upon their tumor volumes. The treatments were started from the next day post randomization (defined as randomization day DO) and were treated with vehicle (0.5% methylcellulose+0.2% Tween 80), or the compound of Example 235 (500 mg/kg PO BID*21 days). The tumor sizes were measured three times per week during the treatment. The entire study was terminated on D20.
Statistical significance, calculated using 2 way ANOVA multiple comparisons in which each treatment group was compared to vehicle control, is indicated by an asterisk. Statistics were performed on groups with less than 20% animal loss (D20 for 4T1, D17 for LL/2). Survival benefit was determined for the LL/2 study (FIG. 4B). Individual mice were euthanized once they reached the termination endpoint (TV>2000 mm3). […]

Sequence of catalytic domain of human PARP14 (Q460N5 1611-1801): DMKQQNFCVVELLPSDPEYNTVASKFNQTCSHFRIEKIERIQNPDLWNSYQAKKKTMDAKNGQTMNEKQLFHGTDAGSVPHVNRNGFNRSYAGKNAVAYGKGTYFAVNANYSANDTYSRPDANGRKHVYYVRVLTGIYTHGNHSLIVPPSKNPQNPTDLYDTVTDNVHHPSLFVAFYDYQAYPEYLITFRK

| IC50 [1] [µM] | SMILES | Tumor growth inhibition versus vehicle group (LL/2 cells) [%] | Tumor growth inhibition versus vehicle group (4T1 cells) [%] |
| --- | --- | --- | --- |
| < 1 | O=c1[nH]c(CSC2CCOCC2)nc2cc(N[C@H]3CCC[C@@H]3F)cc(F)c12 (racemic) [Example 305] |  |  |
| > 10 | Cc1cccc2c(=O)[nH]c(CS[C@@H]3CCC[C@H](CN(C)C)C3)nc12 (relative stereo) [Example 72, 2-((((cis)-3-((Dimethylamino)methyl)cyclohexyl)thio)methyl)-8-methyl quinazolin-4(3H)-one Trifluoroacetate] |  |  |
|  | O=c1[nH]c(CS[C@H]2CC[C@H](O)CC2)nc2cc(OCC3CC3)cc(F)c12 [Example 235, 7-(Cyclopropylmethoxy)-5-fluoro-2-(((trans-4-hydroxycyclohexyl)thio)methyl)quinazolin-4(3H)-one] | 63 | 31 |

Reference: patent publication US11008308B2, “Quinazolinones as PARP14 inhibitors” (Ribon Therapeutics Inc., priority 2017, dated 2021)
